Assays:
Test in all cases: CA Inhibition Assay
Conditions in all cases: pH 7.5; 25 °C
Carbonic anhydrase 14 = Carbonic anhydrase 14 (Homo sapiens, UniProt Q9ULX7)
Description: (§1) An Applied Photophysics stopped-flow instrument has been used for assaying the CA catalysed CO2 hydration activity. […] The CO2 concentrations ranged from 1.7 to 17 mM for the determination of the kinetic parameters and inhibition constants. […] The uncatalyzed rates were determined in the same manner and subtracted from the total observed rates. Stock solutions of inhibitor (0.1 mM) were prepared in distilled deionized water and dilutions up to 0.01nM were done thereafter with distilled-deionized water.

Carbonic anhydrase 3 = Carbonic anhydrase 3 (Homo sapiens, UniProt P07451)
Description: as §1

Carbonic anhydrase 6 = Carbonic anhydrase 6 (Homo sapiens, UniProt P23280)
Description: as §1

Carbonic anhydrase 1 = Carbonic anhydrase 1 (Homo sapiens, UniProt P00915)
Description: as §1

Carbonic anhydrase 2 = Carbonic anhydrase 2 (Homo sapiens, UniProt P00918)
Description: as §1

[1] = target: Carbonic anhydrase 5A, mitochondrial (Homo sapiens, UniProt P35218)
Description: as §1

[2] = target: Carbonic anhydrase 5B, mitochondrial (Homo sapiens, UniProt Q9Y2D0)
Description: as §1

Carbonic anhydrase 13 = Carbonic anhydrase 13 (Homo sapiens, UniProt Q8N1Q1)
Description: as §1

Carbonic anhydrase 12 = Carbonic anhydrase 12 (Homo sapiens, UniProt O43570)
Description: as §1

Carbonic anhydrase 4 = Carbonic anhydrase 4 (Homo sapiens, UniProt P22748)
Chain of Carbonic anhydrase 4 (P22748 whole entry): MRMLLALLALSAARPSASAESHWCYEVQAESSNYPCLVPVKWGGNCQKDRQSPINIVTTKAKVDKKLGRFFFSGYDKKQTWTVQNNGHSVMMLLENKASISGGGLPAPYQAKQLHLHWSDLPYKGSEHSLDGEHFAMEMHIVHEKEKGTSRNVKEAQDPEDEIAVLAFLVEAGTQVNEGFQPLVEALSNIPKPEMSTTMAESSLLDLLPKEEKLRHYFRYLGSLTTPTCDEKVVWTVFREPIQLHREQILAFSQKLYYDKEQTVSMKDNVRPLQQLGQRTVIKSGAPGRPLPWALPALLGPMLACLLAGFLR
Description: as §1

Chain of Carbonic anhydrase 14 (Q9ULX7 whole entry): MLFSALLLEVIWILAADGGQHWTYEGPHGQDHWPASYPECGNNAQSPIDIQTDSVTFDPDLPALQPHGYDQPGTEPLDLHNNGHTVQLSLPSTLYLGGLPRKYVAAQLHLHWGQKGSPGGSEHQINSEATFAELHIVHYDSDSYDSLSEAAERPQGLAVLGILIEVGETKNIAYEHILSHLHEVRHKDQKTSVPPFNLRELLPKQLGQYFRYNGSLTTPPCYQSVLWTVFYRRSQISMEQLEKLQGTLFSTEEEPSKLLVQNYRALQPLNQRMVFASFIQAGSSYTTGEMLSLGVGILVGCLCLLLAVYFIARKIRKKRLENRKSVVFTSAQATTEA
Chain of Carbonic anhydrase 3 (P07451 whole entry): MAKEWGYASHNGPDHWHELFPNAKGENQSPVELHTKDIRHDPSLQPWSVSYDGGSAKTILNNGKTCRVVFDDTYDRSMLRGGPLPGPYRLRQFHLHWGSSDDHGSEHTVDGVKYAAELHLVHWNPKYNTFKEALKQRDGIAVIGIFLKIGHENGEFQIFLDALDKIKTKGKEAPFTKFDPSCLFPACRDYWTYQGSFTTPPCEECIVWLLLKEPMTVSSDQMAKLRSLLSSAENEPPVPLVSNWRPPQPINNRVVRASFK
Chain of Carbonic anhydrase 6 (P23280 whole entry): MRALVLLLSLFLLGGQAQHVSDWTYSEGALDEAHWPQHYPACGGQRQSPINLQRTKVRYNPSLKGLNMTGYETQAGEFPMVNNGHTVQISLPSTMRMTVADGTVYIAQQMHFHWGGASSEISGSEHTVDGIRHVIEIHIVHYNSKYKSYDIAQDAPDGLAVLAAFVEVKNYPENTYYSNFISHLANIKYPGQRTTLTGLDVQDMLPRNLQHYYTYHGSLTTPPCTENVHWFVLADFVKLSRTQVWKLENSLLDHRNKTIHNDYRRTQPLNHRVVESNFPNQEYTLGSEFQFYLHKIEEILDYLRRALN
Chain of Carbonic anhydrase 13 (Q8N1Q1 whole entry): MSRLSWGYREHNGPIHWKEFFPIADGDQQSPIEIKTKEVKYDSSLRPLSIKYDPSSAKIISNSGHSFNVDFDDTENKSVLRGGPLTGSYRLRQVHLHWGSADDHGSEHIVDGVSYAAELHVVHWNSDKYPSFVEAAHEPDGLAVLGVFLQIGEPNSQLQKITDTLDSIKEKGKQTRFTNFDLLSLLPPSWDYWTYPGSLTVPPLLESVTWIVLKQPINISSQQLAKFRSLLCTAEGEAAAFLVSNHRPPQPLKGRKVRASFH
Chain of Carbonic anhydrase 1 (P00915 whole entry): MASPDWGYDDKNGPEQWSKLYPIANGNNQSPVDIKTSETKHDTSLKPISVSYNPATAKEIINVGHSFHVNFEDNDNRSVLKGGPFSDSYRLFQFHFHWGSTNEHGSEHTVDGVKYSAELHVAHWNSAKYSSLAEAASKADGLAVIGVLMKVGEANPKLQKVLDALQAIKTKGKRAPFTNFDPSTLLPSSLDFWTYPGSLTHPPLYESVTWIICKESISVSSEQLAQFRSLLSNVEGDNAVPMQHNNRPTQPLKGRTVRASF
Chain of Carbonic anhydrase 5A, mitochondrial (P35218 whole entry): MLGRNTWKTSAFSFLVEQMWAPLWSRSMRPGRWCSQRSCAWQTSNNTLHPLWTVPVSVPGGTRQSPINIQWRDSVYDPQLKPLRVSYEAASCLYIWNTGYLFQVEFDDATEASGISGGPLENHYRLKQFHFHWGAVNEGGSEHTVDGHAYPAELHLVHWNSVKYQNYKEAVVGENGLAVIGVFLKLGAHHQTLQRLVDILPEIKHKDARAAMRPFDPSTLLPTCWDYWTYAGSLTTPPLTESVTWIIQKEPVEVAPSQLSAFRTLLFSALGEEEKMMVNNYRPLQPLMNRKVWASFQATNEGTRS
Chain of Carbonic anhydrase 5B, mitochondrial (Q9Y2D0 whole entry): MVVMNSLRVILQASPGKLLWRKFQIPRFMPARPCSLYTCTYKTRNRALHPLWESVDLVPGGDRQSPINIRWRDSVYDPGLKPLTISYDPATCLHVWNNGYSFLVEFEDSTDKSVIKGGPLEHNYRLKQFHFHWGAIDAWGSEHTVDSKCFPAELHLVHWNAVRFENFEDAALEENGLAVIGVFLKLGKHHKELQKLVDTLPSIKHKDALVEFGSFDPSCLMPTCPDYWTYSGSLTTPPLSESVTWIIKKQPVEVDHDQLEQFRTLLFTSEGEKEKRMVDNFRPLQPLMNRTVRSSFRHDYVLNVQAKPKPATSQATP
Chain of Carbonic anhydrase 12 (O43570 whole entry): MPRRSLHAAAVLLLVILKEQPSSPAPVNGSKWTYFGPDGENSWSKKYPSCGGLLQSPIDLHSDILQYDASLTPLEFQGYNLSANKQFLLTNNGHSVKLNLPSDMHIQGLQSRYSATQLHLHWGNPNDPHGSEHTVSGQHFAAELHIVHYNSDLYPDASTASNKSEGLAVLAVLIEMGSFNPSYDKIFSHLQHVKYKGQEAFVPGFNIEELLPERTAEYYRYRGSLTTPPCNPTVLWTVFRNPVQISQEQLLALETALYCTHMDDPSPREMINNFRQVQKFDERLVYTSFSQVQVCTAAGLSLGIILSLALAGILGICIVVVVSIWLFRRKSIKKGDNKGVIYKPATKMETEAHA

SMILES | Ki (Carbonic anhydrase 14) | Ki (Carbonic anhydrase 3) | Ki (Carbonic anhydrase 6) | Ki (Carbonic anhydrase 1) | Ki (Carbonic anhydrase 2) | Ki [1] | Ki [2] | Ki (Carbonic anhydrase 13) | Ki (Carbonic anhydrase 12) | Ki (Carbonic anhydrase 4)
NS(=O)(=O)c1cc(Cl)c(Cl)c(S(N)(=O)=O)c1 [Dichlorophenamide, DCP] | 340 nM | – | – | – | – | – | – | – | – | –
CC1(C)[C@@H](O)C[C@H]2[C@](C)(O)[C@@H]3CCC4[C@@H](O)C3(C[C@@H](O)[C@@]21O)C[C@@]4(C)O (stereo partly specified) [Grayanotoxin III (GTX3)] | 1470 nM | 760 nM | 860 nM | 8010 nM | 6130 nM | 1140 nM | 740 nM | 690 nM | 2150 nM | 510 nM

— BindingDB's records for doi:10.3109/14756366.2013.804072 (University of Calgary, 2014)
